Reference: EP0099121A2, “Pharmaceutical compositions” (Bristol-Myers Company, priority 1982, dated 1984)

Each compound was assayed on Gastric Acid Output (assay: Gastric antisecretory activity in the Gastric Fistula Rat (Table 2 title: Two-Hour Pylorus Ligated Rat)). Details: Rattus norvegicus, ip; Route of Administration i.p.; numbers in parentheses are the 95% confidence limits; read-out: ED50.
Assay type: in vivo, Long Evans rats
Description: Male Long Evans rats weighing about 240-260 grams at the time of cannula implantation are used. The design and implantation of the stainless steel cannula into the anterior wall of the fore-stomach are carried out essentially as described by Pare et al. [Laboratory Animal Science, 27, 244 (1977)]. The fistula components are designed and the operative procedure is carried out exactly as described in the above reference. Post operatively the animals are individually housed in solid bottom cages with sawdust and are allowed food and water ad libitum throughout the entire recovery period. Animals are not used for test purposes for at least 15 days after the operative procedure.
The animals are fasted but allowed water ad libitum for 20 hours before the testing procedure is to begin. Immediately prior to collection, the cannula is opened and the stomach washed gently with 30-40 mL of warm saline or distilled water to remove any residual contents. The catheter is then screwed into the cannula in place of the plugging screw and the rat is placed in a clear plastic rectangular cage measuring 40 cm long, 15 cm wide and 13 cm high. The bottom of the cage has a slit approximately 1.5 cm wide and 25 cm long running down the center to accommodate the catheter which hangs through it. In this way the rat is not restricted and can move freely about the cage during collection periods. The remainder of the assay is carried out as described by Ridley et al. [Research Comm. Chem. Path. Pharm., 17, 365 (1977)].
Gastric secretions collected during the first hour after washing the stomach are discarded as they may be contaminated. For oral evaluation, the catheter is then removed from the cannula and replaced with the plugging screw. Water (2 mL/kg) is administered orally via gastric intubation and the animal is returned to the cage for 45 minutes. After this time the plugging screw is removed and replaced with a catheter to which a small plastic vial has been attached to collect the gastric secretions. A two hour sample is collected (this represents the control secretion), the catheter removed and replaced with the plugging screw. The test drug is now administered orally in a volume of 2 mL/kg via gastric intubation. Forty-five minutes later the plugging screw is again removed, replaced with the catheter attached to a small plastic vial and another 2 hour sample is collected. The secretions in the second sample are compared to those of the control sample in order to determine the effects of the test drug.
When test compounds are to be evaluated parenterally, the animal is injected ip or sc with the test compound vehicle in a volume of 2 mL/kg immediately after discarding the initial 60 minute collection. A two hour sample is collected (control secretion) and the animals are injected either ip or sc with the test compound in a volume of 2 mL/kg. An additional two hour sample is collected and its secretions are compared to those of the control period to determing drug effects.
The samples are centrifuged in a graduated tube for volume determination. Titratable acidity is measured by titrating a one mL sample to pH 7.0 with 0.02N NaOH, using an Autoburet and an electrometric pH meter (Radiometer). Titratable acid output is calculated in microequivalents by multiplying the volume in milliliters by the acid concentration in milliequivalents per liter.
Results are expressed as percent inhibition relative to control readings. Dose response curves are constructed and ED values are calculated by regression analyses. At least three rats are used at each dosage level and a minimum of three dosage levels are utilized for determination of a dose response curve.
Compound `C#CCNC1=NS(=O)(=O)N=C1NCCSCc1nc[nH]c1C` [Example 1, 3-{2-[(5-Methyl-1H-imidazol-4-yl)methylthio}ethylamino}-4-(2-propynyl)amino-1,2,5-thiadiazole 1,1-dioxide] has an ED50 of 12.5 µmol/kg.
`Cc1[nH]cnc1CSCCNC1=NS(=O)(=O)N=C1O` [Example 7, 3-Hydroxy-4-{2-[(5-methyl-1H-imidazol-4-yl)methylthio]-ethylamino}-1,2,5-thiadiazole 1,1-dioxide] gave an ED50 of 31.1 µmol/kg.
Compound `C#CCNC1=NS(=O)(=O)N=C1NCCSCc1csc(N=C(N)N)n1` [Example 32, 3-{2-[(2-Guanidinothiazol-4-yl)methyithio]ethylamino}-4-(2-propynyl)amino-1,2,5-thiadiazole 1,1-dioxide] has an ED50 of 0.08 µmol/kg.

Same assay, conditions: Rattus norvegicus, sc; Route of Administration s.c.; numbers in parentheses are the 95% confidence limits; read-out: ED50
`NC1=NS(=O)(=O)N=C1NCCCOc1cccc(CN2CCCCC2)c1` [Example 134, 3-Amino-4-[3-(3-piperidinomethylphenoxy)propyiamino]-1,2,5-thiadiazole 1,1-dioxide] showed an ED50 of 0.024 µmol/kg.
With `CN(C)Cc1ccc(CSCCNC2=NS(=O)(=O)N=C2NCc2ccncc2)s1` [Example 130, 3-{2-[(5-Dimethylaminomethyl-2-thienyl)methylthio]ethylamino}-4-[(4-pyridyl)methylamino]-1,2,5-thiadiazole 1,1-dioxide] the ED50 was 2.3 µmol/kg.
`CNC1=NS(=O)(=O)N=C1NCCSCc1ccccn1` [Example 52, 3-Methylamino-4-{2-[(2-pyridyl)methylthio]ethylamino}-1,2,5-thiadiazole 1,1-dioxide] was tested, and the ED50 was ~350 µmol/kg.
For `CNC1=NS(=O)(=O)N=C1NCCSCc1nc[nH]c1C` [Example 2], the ED50 was ~100 µmol/kg.
In the case of `CN(C)Cc1ccc(CSCCNc2n[s+]([O-])nc2N)s1` (centres unmarked) [Example 109, 3-Amino-4-{2-[(5-dimethylaminomethyl-2-thienyl)methylthio]-ethylamino}-1,2,5-thiadiazole 1-oxide], the ED50 is reported as 1.4 µmol/kg.
`CN(C)Cc1ccc(CSCCNC2=NS(=O)(=O)N=C2N2CCOCC2)o1` [Example 99, 3-{2-[(5-Dimethylaminomethyl-2-furyl)methylthio]ethylamino}-4-morpholino-1,2,5-thiadiazole 1,1-dioxide] gave an ED50 of 32 µmol/kg.
`CN(C)Cc1ccc(CSCCNC2=NS(=O)(=O)N=C2NCc2ccccn2)s1` [Example 129, 3-{2-[(5-Dimethylaminomethyl-2-thienyl)methylthio]ethylamino}-4-[(2-pyridyl)methylamino]-1,2,5-thiadiazole 1,1-dioxide] showed an ED50 of ~1 µmol/kg.
`CCNc1n[s+]([O-])nc1NCCSCc1ccc(CN(C)C)o1` (centres unmarked) [Example 84, 3-{2-[(5-Dimethylaminomethyl-2-furyl)methylthio]ethylartino}-4-ethylamino-1,2,5-thiadiazole 1-oxide] gave an ED50 of 0.15 µmol/kg.
`CN(C)Cc1ccc(CSCCNC2=NS(=O)(=O)N=C2NCc2ccccc2)o1` [Example 89, 3-Benzylamino-4-{2-[(5-dimethylaminomethyl-2-furyl)-methylthio]ethylamino}-1,2,5-thiadiazole 1,1-dioxide] showed an ED50 of 0.25 µmol/kg.
`CNC1=NS(=O)(=O)N=C1NCCCOc1cccc(CN(C)C)c1` [Example 113, 3-[3-(3-Dimethylaminomethylphenoxy)propylamino]-4-methylamino-1,2,5-thiadiazole 1,1-dioxide] showed an ED50 of 0.07 µmol/kg.
With `CCCCNC1=NS(=O)(=O)N=C1NCCSCc1ccc(CN(C)C)o1` [Example 103, 3-Butylamino-4-(2-[(5-dimethylaminomethyl-2-furyl)methylthio]-ethylamino}-1,2,5-thiadiazole 1,1-dioxide] the ED50 was 0.54 µmol/kg.
In the case of `Nc1nc(CSCCNc2n[s+]([O-])nc2N)cs1` (centres unmarked) [Example 124, 3-Amino-4-{2-[(2-aminothiazol-4-yl)methylthio]ethylamino}-1,2,5-thiadiazole 1-oxide], the ED50 is reported as > 10 µmol/kg.
For `CNc1n[s+]([O-])nc1NCCSCc1ccc(CN(C)C)s1` (centres unmarked) [Example 92, 3-{2-[(5-Dimethylaminomethyl-2-thienyl)methylthio]-ethylamino}-4-methylamino-1,2,5-thiadiazole 1-oxide], the ED50 was 0.24 µmol/kg.
In the case of `NC(N)=Nc1nc(CSCCNc2n[s+]([O-])nc2O)cs1` (centres unmarked) [Example 116, 3-{2-[(2-Guanidinothiazol-4-yl)methylthylthio]ethylamino}-4-hydroxy-1,2,5-thiadiazole 1-oxide], the ED50 is reported as > 10 µmol/kg.
`CN(C)Cc1ccc(CCCCNC2=NS(=O)(=O)N=C2N)o1` [Example 93, 3-Amino-4-{4-(5-dimethylaminomethyl-2-furyl)butylamino}-1,2,5-thiaciazole 1,1-dioxide] showed an ED50 of 0.14 µmol/kg.
With `CN(C)Cc1ccc(CSCCNC2=NS(=O)(=O)N=C2NCc2ccccc2)s1` [Example 112, 3-Benzylamino-4-(2-[(5-dimethylaminomethyl-2-thienyl)-methylthio]ethylamino}-1,2,5-thiadiazole 1,1-dioxide] the ED50 was 1.2 µmol/kg.
Work on `CNC1=NS(=O)(=O)N=C1NCCSCc1csc(N=C2NCCN2)n1` [Example 128, 3-{2-[(2-{2-Imidazolidinyl}iminothiazol-4-yl)methylthio]-ethylamino}-4-methy1amino-1,2,5-thiadiazole 1,1-dioxide] yielded an ED50 of ~10 µmol/kg.
In the case of `CCNC1=NS(=O)(=O)N=C1NCCSCc1ccc(CN(C)C)s1` [Example 131, 3-{2-[(5-Dimethylaminomethyl-2-thienyl)methylthio]ethylamino}-4-ethylamino-1,2,5-thiadiazole 1,1-dioxide], the ED50 is reported as ~0.5 µmol/kg.
`CN(C)Cc1ccc(CSCCNC2=NS(=O)(=O)N=C2NCC2CC2)o1` [Example 98, 3-Cyclopropylmethylamino-4-{2-[ (5-dimethylaminomethyl-2-furyl)methylthio]ethylamino}-1,2,5-thiadiazole 1,1-dioxide] showed an ED50 of 0.52 µmol/kg.
Compound `CNC1=NS(=O)(=O)N=C1NCCSCc1csc(N)n1` [Example 122, 3-{2-[(2-Aminothiazol-4-yl)methylthio]ethylamino}-4-methylamino-1,2,5-thiadiazole 1,1-dioxide] has an ED50 of ~10 µmol/kg.
In the case of `CNc1nc(CSCCNc2n[s+]([O-])nc2N)cs1` (centres unmarked) [Example 119], the ED50 is reported as > 10 µmol/kg.
For `CN(C)Cc1ccc(CSCCNC2=NS(=O)(=O)N=C2N2CCCC2)o1` [Example 101, 3-{2-[(5-Dimethylaminomethyl-2-furyl)methylthio]ethylamino}-4-pyrrolidino-1,2,5-thiadiazole 1,1-dioxide], the ED50 was 68 µmol/kg.
Work on `CNC1=NS(=O)(=O)N=C1NCCSCc1csc(CN(C)C)n1` [Example 33, 3-{2-[(2-Dimethylaminomethyl-4-thiazolyl)methylthio]ethyl-amino}-4-methylamino-1,2,5-thiadiazole 1,1-dioxide] yielded an ED50 of 0.57 µmol/kg.
With `CN(C)Cc1cccc(CSCCNc2n[s+]([O-])nc2N)c1` (centres unmarked) [Example 91, 3-Arnino-4-{2-[(3-{dinethylaninomethyl}henyl)methvlthio}-ethvlamino}-1,2,5-thiadiazole 1-oxide] the ED50 was 1.3 µmol/kg.
In the case of `CN=C(N)Nc1nc(CSCCNc2n[s+]([O-])nc2N)cs1` (centres unmarked) [Example 117, 3-Amino-4-{2-[(2-{2-methylguanidino}thiazol-4-yl)methylthio]-ethylamino}-1,2,5-thiadiazole 1-oxide], the ED50 is reported as ~0.5 µmol/kg.
`N=C(N)Nc1nc(CSCCNC2=NS(=O)(=O)N=C2NCCO)cs1` [Example 36, 3-{2-[(2-Guanidinothiazol-4-yl)methylthio]ethylamino}-4-(2-hydroxyethylamino)-1,2,5-thiadiazole 1,1-dioxide] gave an ED50 of 1.59 µmol/kg.

Same assay, conditions: Route of Administration s.c.; numbers in parentheses are the 95% confidence limits
`NC1=NS(=O)(=O)N=C1NCCCOc1cccc(CN2CCOCC2)c1` [146 d] was tested, and the ED50 was 0.28 (0.066-1.21) μmoles/kg.
In the case of `CNC1=NS(=O)(=O)N=C1NCCCOc1cccc(CN2CCCC2)c1` [144 a], the ED50 is reported as 0.095 (0.033-0.30) μmoles/kg.
Compound `CC1CCN(Cc2cccc(OCCCNc3n[s+]([O-])nc3N)c2)CC1` (centres unmarked) [145 b] has an ED50 of ~0.06 µmol/kg.
With `Nc1n[s+]([O-])nc1NCCCOc1cccc(CN2CCCC2)c1` (centres unmarked) [145 a] the ED50 was 0.056 (0.021-0.18) μmoles/kg.
With `CNCc1ccc(CSCCNC2=NS(=O)(=O)N=C2NC)o1` [20 A] the ED50 was 1.15 (0.32-3.7) μmoles/kg.
Work on “3-{2-[(5-Dimethylaminomethyl-2-furyl)methy1thio]ethylamino}-4-dodecylamino-1,2,5-thiadiazole 1,1-dioxide [Example 106]” yielded an ED50 of ~80 µmol/kg.
